According to the Deep4Chem optical property database:
Each block holds one compound with its values, some of them ahead of it.

Experiment: solvent given as SMILES
[1] = in N#Cc1ccc2c(c1)c1ccccc1n2-c1cccc(-n2c3ccccc3c3ccccc32)c1

fluorescence lifetime (in ClC(Cl)Cl): 0.86 ns
SMILES: CCCCCCN1C(=O)c2cccc3c(-c4cc5ccccc5s4)ccc(c23)C1=O

fluorescence lifetime (in CC#N): 1.24 ns
SMILES: Cc1cc(C)c2nc3c(=O)[nH]c(=O)[nH]c3nc2c1

fluorescence lifetime [1]: 15.7 ns
SMILES: CC1(C)c2ccccc2N(c2ccc(-c3cnc(C#N)nc3)cc2)c2ccccc21

fluorescence lifetime (in ClC(Cl)Cl): 1.5 ns
SMILES: COc1ccc2c(C=C(C#N)C#N)cc3ccc4cc(C=C(C#N)C#N)c5ccc(OC)cc5c4c3c2c1

fluorescence lifetime (in ClCCl): 1.87 ns
SMILES: c1ccc2c(-n3c(-c4ccc(-c5ccc(-c6nc7c8ccccc8c8ccccc8c7n6-c6cccc7ccccc67)c6ccccc56)c5ccccc45)nc4c5ccccc5c5ccccc5c43)cccc2c1

fluorescence lifetime (in C1COCCO1): 2.8 ns
SMILES: CCC12C(=C3C(=C4c5ccc(-c6ccc(C(C)=O)cc6)cc5S(=O)(=O)C41CC)C(F)(F)C(F)(F)C3(F)F)c1ccc(-c3ccc(C(C)=O)cc3)cc1S2(=O)=O (stereo not drawn)

fluorescence lifetime (in C1CCCCC1): 0.8 ns
fluorescence lifetime (in C1CCOC1): 1 ns
SMILES: c1ccc(-c2ccc(-c3ccc(-c4ccccc4)cc3)cc2)cc1

fluorescence lifetime (in C1CCCCC1): 0.941 ns
fluorescence lifetime (in C1COCCO1): 1.44 ns
fluorescence lifetime (in CC#N): 0.521 ns
fluorescence lifetime (in CN(C)C=O): 4.47 ns
fluorescence lifetime (in CO): 0.39 ns
fluorescence lifetime (in O): 0.34 ns
fluorescence lifetime (in OCC(O)CO): 4.92 ns
fluorescence lifetime (in OCCO): 2.25 ns
SMILES: COc1cc(/C=C2/SC(=O)NC2=O)cc(OC)c1O

fluorescence lifetime (in CO): 22 ns
SMILES: CCOC(=O)CCCCCn1c2ccc(C)cc2c(=O)c2cc3c(cc21)c(=O)c1cc(C)ccc1n3CCCCCC(=O)OCC

fluorescence lifetime (in ClCCl): 3.8 ns
SMILES: C[Si]1(C)c2ccc(C#Cc3ccccc3)cc2C=Cc2cc(C#Cc3ccccc3)ccc21

fluorescence lifetime (in CC#N): 1.11 ns
fluorescence lifetime (in CS(C)=O): 1.05 ns
SMILES: c1ccc(-c2nc(-c3ccc(-c4nc(-c5ccccc5)c(-c5ccccc5)[nH]4)cc3)[nH]c2-c2ccccc2)cc1

fluorescence lifetime (in CC#N): 1.85 ns
fluorescence lifetime (in CO): 1.75 ns
fluorescence lifetime (in O): 2.04 ns
SMILES: CN(C)CCCN1c2ccccc2Sc2ccccc21

The next lines start with the compound.

SMILES: CC1(C)CC(/N=C/c2ccc3ccc4cccc5ccc2c3c45)CC(C)(C)N1
fluorescence lifetime (in C1CCCCC1): 7.3 ns
fluorescence lifetime (in CC#N): 2.9 ns
fluorescence lifetime (in CO): 2.6 ns
fluorescence lifetime (in ClC(Cl)Cl): 0.3 ns

SMILES: COc1ccc(N(c2ccc(/C=C(\C)c3ccccc3)cc2)c2ccc(/C=C(\C)c3ccccc3)cc2)cc1
fluorescence lifetime (in Cc1ccccc1): 1.5 ns

SMILES: Cc1ccc2nc3c(=O)[nH]c(=O)[nH]c3nc2c1
fluorescence lifetime (in CC#N): 0.4 ns
fluorescence lifetime (in ClCCCl): 0.32 ns

SMILES: COc1ccc(N(c2ccc(OC)cc2)c2ccc(-c3ccc(-c4ccc(-c5ccc(-c6ccc(N(c7ccc(OC)cc7)c7ccc(OC)cc7)cc6)s5)c5nsnc45)s3)cc2)cc1
fluorescence lifetime (in ClC(Cl)Cl): 4.9 ns

SMILES: N#Cc1c(-n2c3ccc(-c4ccccc4)cc3c3cc(-c4ccccc4)ccc32)c(-n2c3ccc(-c4ccccc4)cc3c3cc(-c4ccccc4)ccc32)c(C#N)c(-n2c3ccc(-c4ccccc4)cc3c3cc(-c4ccccc4)ccc32)c1-n1c2ccc(-c3ccccc3)cc2c2cc(-c3ccccc3)ccc21
fluorescence lifetime (in Cc1ccccc1): 9 ns

SMILES: CC1(C)C(/C=C/C2=C(Cl)C(=C/C=C3/N(CCCCS(=O)(=O)[O-])c4ccc5ccccc5c4C3(C)C)/CCC2)=[N+](CCCCS(=O)(=O)[O-])c2ccc3ccccc3c21
fluorescence lifetime (in CC(C)=O): 0.43 ns
fluorescence lifetime (in CCO): 0.38 ns
fluorescence lifetime (in CO): 0.25 ns
fluorescence lifetime (in CS(C)=O): 0.5 ns
fluorescence lifetime (in ClC(Cl)Cl): 0.73 ns
fluorescence lifetime (in ClCCl): 0.59 ns
fluorescence lifetime (in O): 0.13 ns

SMILES: CCCCC#Cc1cccc2cc(CCCC)c3cc(-c4cc[b-]5c(c4)c(CCCC)cc4cccc(C#CCCCC)[n+]54)cc[b-]3[n+]12
fluorescence lifetime (in C1CCCCC1): 4 ns

SMILES: c1ccc(-c2cc(-c3ccccc3)cc(-c3ccc4c(c3)C3(c5ccccc5-4)c4ccccc4-c4c3c3c5ccccc5c(-c5cc(-c6ccccc6)cc(-c6ccccc6)c5)cc3c3ccccc43)c2)cc1 (stereo not drawn)
fluorescence lifetime (in Cc1ccccc1): 2.14 ns

SMILES: c1ccc(N(c2ccccc2)c2c3ccccc3cc3ccccc23)cc1
fluorescence lifetime (in Cc1ccccc1): 21 ns

SMILES: COc1ccc2cc(-c3ccc(-c4cc5ccc(OC)cc5oc4=O)cc3)c(=O)oc2c1
fluorescence lifetime (in ClC(Cl)Cl): 1.4 ns

SMILES: Cc1ccc(-c2oc3cccc4c5c(-c6ccc(C)cc6)/c(=N/S(=O)(=O)C(F)(F)F)oc6cccc(c2c34)c65)cc1
fluorescence lifetime (in ClC(Cl)Cl): 5.4 ns

SMILES: COC(=O)c1c(C(=O)OC)c2ccc(-c3ccccc3)nn2c1C
fluorescence lifetime (in CCCCCC): 21 ns

SMILES: CCCCCCCCCCCCn1cccc1/C=C/c1cc(OCCCC)c(/C=C/c2cccn2CCCCCCCCCCCC)cc1OCCCC
fluorescence lifetime (in Cc1ccccc1): 1.26 ns

SMILES: N#Cc1cccc2ccccc12
fluorescence lifetime (in C1CCCCC1): 15.9 ns
fluorescence lifetime (in C1CCOC1): 11 ns
fluorescence lifetime (in CCCCCCC): 17.7 ns
fluorescence lifetime (in CCCCOC(C)=O): 12.9 ns
fluorescence lifetime (in CCCOC(C)=O): 12.8 ns
fluorescence lifetime (in CCOC(C)=O): 11.9 ns
fluorescence lifetime (in CCOCC): 13.7 ns
fluorescence lifetime (in Cc1ccccc1): 12.8 ns

SMILES: Cc1cccc(C2=Cc3ccc4ccccc4[n+]3[B-](F)(F)O2)c1
fluorescence lifetime (in ClC(Cl)Cl): 1.58 ns

SMILES: [O-][n+]1c(-c2ccc(Br)cc2)cc(N2CCOCC2)nc1/C=C/c1ccccc1
fluorescence lifetime (in ClCCl): 3.7 ns

SMILES: N#C/C(=C\c1ccc(C=C(c2ccccc2)c2ccccc2)cc1)c1ccccc1
fluorescence lifetime (in C1CCOC1): 1 ns

SMILES: COc1ccc(/C=C/C2=C3CCc4ccccc4C3=[O+][B-](F)(F)O2)cc1
fluorescence lifetime (in ClCCl): 0.24 ns

SMILES: CC1=CC(C)=[N+]2C1=C(c1ccccc1)c1c(C)c(-c3cccs3)c(C)n1[B-]2(F)F
fluorescence lifetime (in Cc1ccccc1): 3.2 ns

SMILES: N#C/C=C/c1ccc2ccc3cccc4ccc1c2c34
fluorescence lifetime (in C1CCOC1): 3.2 ns
fluorescence lifetime (in CC#N): 3 ns
fluorescence lifetime (in CC(C)=O): 3.1 ns

SMILES: CC1(C)c2ccccc2N(c2ccc(-c3ncc(C#N)cn3)cc2)c2ccccc21
fluorescence lifetime [1]: 23.7 ns
